Laboratory results taken from patent US5714467A, “Antibacterial and antimalarial hybrid peptides” (The Rockefeller University, priority 1993, dated 1998).
Where no end group is shown, it is not given here.

What was measured:
Candida albicans = experiment: inhibition zone assay, lethal concentration; assay type: cell-based; details: Table 2, footnote c: incubation overnight at 37° C.
Method: (§1) The products of the invention were tested for activity against a variety of test organisms selected to represent a number of different types of pathogens some of them known to be particularly virulent by the inhibition zone assay of Hoffmann et al (1981) Insect Biochem. 11 537-548 which is incorporated herein by reference. Thin agar or agarose plates (8.5 cm diameter) were prepared with 6 ml of rich medium containing 100 ug/ml of streptomycin and 2×10^5 viable cells of a test organism resistant to streptomycin. Wells of […] diameter were punched in the plates and 3 ul of serially diluted samples were placed in the wells. The diameters of the zones of inhibition around the wells were measured after overnight incubation at 30° or 37° C. For each peptide the squares of the zone diameters were plotted against the logarithm of the concentration, and from the slopes and intercepts the lethal concentrations were calculated as described by Hultmark (1983) EMBO J. 2, 571-76 or Hultmark et al (1982) Eur. J. Biochem. 127 207-217 each of which being incorporated herein by reference.
(§2) It was observed during testing that basic peptides often bind to agar plates, but not so much to agarose. Therefore those lethal concentrations determined on agar may, in fact, be substantially higher than the actual lethal concentrations.

[1] = tested on: Staphylococcus haemolyticus; experiment: inhibition zone assay, lethal concentration; assay type: cell-based; details: Table 2, footnote c: incubation overnight at 37° C.
Method: as §1, §2

[2] = tested on: Xenorhabdus nematophilis Xn21; experiment: inhibition zone assay, lethal concentration; assay type: cell-based; details: Table 2, footnote c: incubation overnight at 37° C.
Method: as §1, §2

Saccharomyces cerevisiae = experiment: inhibition zone assay, lethal concentration; assay type: cell-based; details: Table 2, footnote c: incubation overnight at 37° C.
Method: as §1, §2

Sheep Red Cells = experiment: lysis of sheep red blood cells (lysis assay or SRC plate assay); assay type: cell-based
Method: These values were obtained by either the lysis assay normally used for melittin or by an adaptation of the antibacterial inhibition zone assay of the above-cited Hultmark et al articles to plates with sheep red cells (SRC). With respect to the latter, sterile agarose plates contained 6 ml of medium With 1% agarose, 0.9% NaCl and 10% SRC suspended in Alsevers solution. A dilution series of peptide was applied in 3 mm wells each loaded with 3 μl of the respective samples. The plates were incubated at 30° C. for 24 h, the zones were recorded and LC values calculated as described in the Hultmark et al articles. Clear zones were recorded after a few hours of incubation and the use of such data gave an LC value of the same order as readings after 24 h. This plate assay is faster and more convenient than the lysis assay normally used for melittin.

[3] = tested on: Staphylococcus aureus Cowan I; experiment: inhibition zone assay, lethal concentration; assay type: cell-based; details: for Lethal concentration, Staph = S. aureus Cowan I: Table 3, agarose plates, overnight incubation at 30° C.
Method: as §1, §2
(§3) Novel peptides CA(1-8)M(1-18), CA(1-9)M(1-17), CB(1-13)M(1-13), CA(1-17)M(1-9), CA(1-18)M(1-8), M(1-13)CA(1-22) and M(1-13)CA(1-13) were prepared as described above (see Examples 1-6). These novel peptides and CA, CB, and M were tested for activity against a variety of organisms selected to represent a number of different types of pathogens, some of them known to be particularly virulent by the inhibition zone assay of Hoffmann et al (1981), Insect Biochem. 11 537-48. As in Examples 1-6, thin agarose plates were prepared with the respective organisms. The diameters of the zones of inhibition were measured after overnight incubation at 30° C. The lethal concentrations were determined as described above (see Examples 1-6; Hultmark et al articles cited thereat).

Bacillus subtilis Bs11 = experiment: inhibition zone assay, lethal concentration; assay type: cell-based
Method: as §1, §2, §3

Streptococcus pyogenes = experiment: inhibition zone assay, lethal concentration; assay type: cell-based; details: for Lethal concentration, Strep = S. pyogenes: Table 3, agarose plates, overnight incubation at 30° C.
Method: as §1, §2, §3

[4] = tested on: Pseudomonas aeruginosa OT97; experiment: inhibition zone assay, lethal concentration; assay type: cell-based; details: for Lethal concentration, OT97 = P. aeruginosa: Table 3, agarose plates, overnight incubation at 30° C.
Method: as §1, §2, §3

Escherichia coli D21 = experiment: inhibition zone assay, lethal concentration; assay type: cell-based; details: for Lethal concentration, D21 = E. coli: Table 3, agarose plates, overnight incubation at 30° C.
Method: as §1, §2, §3

[5] = tested on: Plasmodium falciparium strain F32 (Tanzania), blood stream forms; experiment: inhibition of reinvasion of human red cells by malaria parasite; assay type: cell-based, Plasmodium falciparum; details: for antimalarial potency in words: FIG. 1, blood stream form of Plasmodium falciparium; for IC50: Table 4, P. falciparum, read-out: 50% Reinvasion Inhibition
Method: Hybrid peptides CA(1-13)M(1-13) and CA(1-8)M(1-18) were prepared as described above (see Examples 1-6) and were assayed for activity against the blood stream form of Plasmodium falciparium. For comparison the test included cecropins A and B and the frog skin peptides magainin 2 and PGLa.
The blood stream forms of the malaria parasite Plasmodium falciparium, primarily late trophozoites and early schizonts, were assayed by recording the inhibition of the reinvasion of human red cells by the method of Wahlin, B., et al, (1984) Proc. Nat'l Acad. Sci. USA 81, 7912-16, incorporated herein by reference. Quadruplicate microcultures of strain F32 (Tanzania) were incubated for 20 hrs at 37° C. in a complete tissue culture medium, with or without different concentrations of the peptides to be assayed. After acridine orange staining, the percentage of newly infected red cells was scored in a fluorescence microscope. For each culture 40,000 red cells were analysed for parasitic infection. Duplicate assays were run for CA(1-13)M(1-13).

[6] = Table 2, footnote a: incubation overnight at 30° C. as well as at 37° C.

Compound: CC[C@H](C)[C@H](NC(=O)CN)C(=O)NCC(=O)N[C@@H](C)C(=O)N[C@H](C(=O)N[C@@H](CC(C)C)C(=O)N[C@@H](CCCCN)C(=O)N[C@H](C(=O)N[C@@H](CC(C)C)C(=O)N[C@H](C(=O)N[C@H](C(=O)NCC(=O)N[C@@H](CC(C)C)C(=O)N1CCC[C@H]1C(=O)N[C@@H](C)C(=O)N[C@@H](CC(C)C)C(=O)N[C@H](C(=O)N[C@@H](CO)C(=O)N[C@@H](Cc1c[nH]c2ccccc12)C(=O)N[C@H](C(=O)N[C@@H](CCCCN)C(=O)N[C@@H](CCCNC(=N)N)C(=O)N[C@@H](CCCCN)C(=O)N[C@@H](CCCNC(=N)N)C(=O)N[C@@H](CCC(N)=O)C(=O)N[C@@H](CCC(N)=O)C(N)=O)[C@@H](C)CC)[C@@H](C)CC)[C@@H](C)O)[C@@H](C)O)C(C)C)C(C)C [M(1-26), Melittin]
- Lethal concentration, Candida albicans (Candida albicans): 150 µM
- Lethal concentration, Staphylococcus haemolyticus [1]: 0.3 µM
- Lethal concentration, Xenorhabdus nematophilis Xn21 [2]: 9 to 50 µM
- Lethal concentration, Saccharomyces cerevisiae (Saccharomyces cerevisiae): 10 µM
- Lethal concentration, Sheep Red Cells (Sheep Red Cells; Table 2, footnote b: incubation overnight at 30° C.): 4 to 8 µM
- Lethal concentration, Sheep Red Cells (Sheep Red Cells; Table 2, footnote c: incubation overnight at 37° C.): 4 to 6 µM
- Lethal concentration, SRC = Sheep Red Cells (Sheep Red Cells; Table 3): 4 to 8 µM
- Lethal concentration, Staphylococcus aureus Cowan I [3, 6]: 0.2 µM
- Lethal concentration, Staph = S. aureus Cowan I [3]: 0.2 µM
- Lethal concentration, Bacillus subtilis Bs11 (Medium E) (Bacillus subtilis Bs11; Table 2, Medium E, no incubation footnote): 0.3 µM
- Lethal concentration, Bacillus subtilis Bs11 (Bacillus subtilis Bs11; [6]): 0.2 µM
- Lethal concentration, Bs11 = B. subtilis (Bacillus subtilis Bs11; Table 3, agarose plates, overnight incubation at 30° C.): 0.2 µM
- Lethal concentration, Bs11 + ME = B. subtilis, plates prepared with medium E (Bacillus subtilis Bs11; Table 3, medium E, agarose plates, overnight incubation at 30° C.): 0.3 µM
- Lethal concentration, Streptococcus pyogenes (Streptococcus pyogenes; [6]): 0.5 µM
- Lethal concentration, Strep = S. pyogenes (Streptococcus pyogenes): 0.5 µM
- Lethal concentration, Pseudomonas aeruginosa OT97 [4, 6]: 3 µM
- Lethal concentration, OT97 = P. aeruginosa [4]: 3 µM
- Lethal concentration, Escherichia coli D21 (Escherichia coli D21; [6]): 0.8 µM
- Lethal concentration, D21 = E. coli (Escherichia coli D21): 0.8 µM

Compound: PGLa [PGL^a]
- antimalarial potency in words [5]: intermediate activity
- IC50 [5]: 40 µM

Compound: magainin 2
- IC50 [5]: 80 µM

Compound: KWKVFKKIEKMGRNIRNGIVKAGPAIAVLGEAKAL-NH2 [CB(1-35), Cecropin B]
- antimalarial potency in words [5]: about as potent as Mag
- IC50 [5]: 110 µM
- Lethal concentration, Staph = S. aureus Cowan I [3]: 200 µM
- Lethal concentration, Strep = S. pyogenes (Streptococcus pyogenes): 12 µM
- Lethal concentration, OT97 = P. aeruginosa [4]: 1 µM
- Lethal concentration, D21 = E. coli (Escherichia coli D21): 0.3 µM

Compound: Cecropin P-1
- IC50 [5]: 90 µM
